Laboratory results from paper doi:10.1101/2023.10.24.563163v2, “Targeting cancer with small molecule pan-KRAS degraders” (biorxiv, 2024).
Where two headings read alike, the source gives them in different places.

Legend:
KRAS^WT = target: T1, KRAS^WT (Homo sapiens, UniProt P01116); test: cell-based; set-up: KRAS degradation by capillary electrophoresis immunodetection
T1 construct: endogenous wild type
Procedure: Protein Detection by Capillary Electrophoresis Cells (50 000) were seeded the day before treatment into 96-well clear-flat bottom plates and incubated overnight (37 °C, humidified tissue culture incubator, 5% CO2). Compounds were added from DMSO stock solution using a digital dispenser and cells are incubated at 37 °C as specified (24 hours for KRAS degradation, 6 hours for determination of pERK levels). At the end of the incubation, medium was removed, cells washed with ice cold PBS, PBS removed and 50 µL lysis buffer (Meso Scale Discovery #R60TX-2) supplemented with 1:100 protease inhibitor solution, 1:100 phosphatase inhibitor I, 1:100 phosphatase inhibitor II (Meso Scale Discovery #R70AA-1), 0.5 µL/mL Benzonase (Novagen #70664-3) and 10 mM dithiothreitol added to each well. Plates with lysis buffer were immediately transferred to -80 °C freezer for at least 2 hours and then thawed on ice. Lysates were transferred to a 96 well V-bottom plate and insoluble debris was pelleted by centrifugation for 20 min. at 4 000 rpm. 40 µL of the supernatant were transferred to a fresh Eppendorf PCR plate. Analysis of protein levels was conducted using the Wes System, ProteinSimple (https://www.bio-techne.com/) as specified by the manufacturer. Briefly, Wes Master Mix (12-230 kDa WES Separation Module, 8 × 25 capillary cartridges, ProteinSimple #SM-W004) and molecular weight markers were prepared as specified in the manufacturer’s recommendations. To detect primary antibodies, anti-rabbit (Protein Simple #DM-001) or anti-mouse (Protein Simple #DM-002) detection modules were used. 7.2 µL lysate + 1.8 µL master mix were combined and heated to 95 °C for 5 min. […] Next, we set out to test the ability of a single pan-KRAS degrading molecule, compound 4, to selectively suppress oncogenic signaling and proliferation in cancer cell lines driven by diverse KRAS mutants. To this end, we first confirmed degradation of KRAS by compound 4 in KRAS-dependent (GP2d, SW620 and NCI-H358 expressing KRAS^G12D, - G12V or -G12C, respectively) as well as in KRAS independent (A-375, HEK293) cell lines (Fig. 3A, fig. S4A). […] Both inhibition and degradation repressed the established markers of MAPK signaling pERK (fig. S4B-D) and DUSP6 (Fig. 3B, fig. S4E) in KRAS dependent cell lines. […] Neither degradation nor inhibition had appreciable antiproliferative effects in the KRAS independent cell lines A-375 and HEK293 (Fig. 3C, fig. S4F).

HiBiT-KRAS^G12D = target: T2, HiBiT-KRAS^G12D (Homo sapiens, UniProt P01116, G12D); set-up: HiBiT-KRAS degradation, split nanoluciferase lytic detection; conditions: degrader
T2 construct: HiBiT-tagged
T2 sequence (P01116 whole entry G12D): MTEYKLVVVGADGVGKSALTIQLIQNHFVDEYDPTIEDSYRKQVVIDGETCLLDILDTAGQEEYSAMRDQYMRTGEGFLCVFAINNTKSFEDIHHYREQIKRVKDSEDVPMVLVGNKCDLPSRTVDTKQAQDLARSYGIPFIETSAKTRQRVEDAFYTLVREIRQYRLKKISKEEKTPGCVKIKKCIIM
Procedure: This formula was derived from the Growth Inhibition (GI) calculation used in the National Cancer Institute’s NCI-60 high-throughput screen. KRAS Degradation Assays via Detection of Split Nanoluciferase (HiBiT) To assess PROTAC-mediated degradation of HiBiT-tagged KRAS constructs, cells were seeded at 25 000 cells per well in culture medium into white bottom opaque 96-well plates (Perkin Elmer cat no. 5680). Plates were incubated at 37 °C, 5% CO2 in a humidified incubator over night to allow the cells to adhere. Test compounds (10 mM stock in DMSO) were added at logarithmic dose series using the HP Digital Dispenser D300 (Tecan), normalizing for added DMSO. […] Following incubation, 100 µL per well Promega Nano-Glo HiBiT lytic detection reagent mix (Promega Nano-Glo HiBiT Lytic Detection System #N3050), prepared according to the manufacturer´s instructions in the kit, were added. To allow for adequate cell lysis, plates were incubated on an orbital shaker for 15 min. and further incubated 30 min. at room temperature. Upon completion of cell lysis, luminescence was measured using an Envision plate reader using the Ultrasensitive Luminescence Protocol for 96-well plates. Luminescence levels were normalized by the values obtained with DMSO-treated samples and plotted as percent of DMSO control. DC50 values were computed using a three parametric logistic model. Dmax values represent the maximal extent of degradation observed and are stated as percent of control treatments.

KRAS^G12V = KRAS^G12V (Homo sapiens, UniProt P01116, G12V); set-up: endogenous; KRAS degradation by capillary electrophoresis immunodetection; conditions: read-out: DC50 24 h SW620 (converted)
Chain of KRAS^G12V (P01116 whole entry G12V): as the sequence (P01116 whole entry G12D) above, with D12V counted along it

A375 = test: cells; set-up: pERK levels by capillary electrophoresis; conditions: Homo sapiens, A-375, 6 h
Procedure: (§1) Protein Detection by Capillary Electrophoresis Cells (50 000) were seeded the day before treatment into 96-well clear-flat bottom plates and incubated overnight (37 °C, humidified tissue culture incubator, 5% CO2). Compounds were added from DMSO stock solution using a digital dispenser and cells are incubated at 37 °C as specified (24 hours for KRAS degradation, 6 hours for determination of pERK levels). At the end of the incubation, medium was removed, cells washed with ice cold PBS, PBS removed and 50 µL lysis buffer (Meso Scale Discovery #R60TX-2) supplemented with 1:100 protease inhibitor solution, 1:100 phosphatase inhibitor I, 1:100 phosphatase inhibitor II (Meso Scale Discovery #R70AA-1), 0.5 µL/mL Benzonase (Novagen #70664-3) and 10 mM dithiothreitol added to each well. Plates with lysis buffer were immediately transferred to -80 °C freezer for at least 2 hours and then thawed on ice. Lysates were transferred to a 96 well V-bottom plate and insoluble debris was pelleted by centrifugation for 20 min. at 4 000 rpm. 40 µL of the supernatant were transferred to a fresh Eppendorf PCR plate. Analysis of protein levels was conducted using the Wes System, ProteinSimple (https://www.bio-techne.com/) as specified by the manufacturer. Briefly, Wes Master Mix (12-230 kDa WES Separation Module, 8 × 25 capillary cartridges, ProteinSimple #SM-W004) and molecular weight markers were prepared as specified in the manufacturer’s recommendations. To detect primary antibodies, anti-rabbit (Protein Simple #DM-001) or anti-mouse (Protein Simple #DM-002) detection modules were used. 7.2 µL lysate + 1.8 µL master mix were combined and heated to 95 °C for 5 min. Th

NCI-H358 = test: cells; set-up: pERK levels by capillary electrophoresis; conditions: Homo sapiens, NCI-H358, 6 h
Procedure: as §1

SW620 = test: cells; set-up: pERK levels by capillary electrophoresis; conditions: Homo sapiens, SW-620, 6 h
Procedure: as §1

[1] = A-375, read-out: Dmax 24 h A375 [%]
[2] = HEK293, read-out: Dmax 24 h HEK293 [%]

T1 sequence (P01116 whole entry): as the sequence (P01116 whole entry G12D) above, with D12G counted along it

SMILES | Dmax (KRAS^WT; [1]) | Dmax (KRAS^WT; [2]) | DC50 (HiBiT-KRAS^G12D; read-out: DC50 24 h GP5d HiBiT) | DC50 (KRAS^G12V) | IC50 (A375) | IC50 (NCI-H358) | IC50 (SW620) | DC50 (HiBiT-KRAS^G12D; 10% human serum, read-out: DC50 24 h GP5d HiBiT 10% human serum) | DC50 (HiBiT-KRAS^G12D; 10% mouse serum, read-out: DC50 24 h GP5d HiBiT 10% mouse serum)
Cc1ncsc1-c1ccc(CNC(=O)[C@@H]2C[C@@H](O)CN2C(=O)[C@@H](NC(=O)CCCCCN2CCCN(c3nccc(-c4noc([C@@]5(C)CCCc6sc(N)c(C#N)c65)n4)n3)[C@@H](C)C2)C(C)(C)C)cc1 [compound 3] | 76% | 48% | 68.1 nM | 278 nM | > 1000 nM | > 1000 nM | 708 nM | – | –
Cc1ncsc1-c1ccc([C@H](CO)NC(=O)[C@@H]2C[C@@H](O)CN2C(=O)[C@H](C(C)C)n2cc(OCCCCN3CCCN(c4nccc(-c5noc([C@@]6(C)CCCc7sc(N)c(C#N)c76)n5)n4)[C@@H](C)C3)nn2)cc1 [compound 7, ACBI3] | – | – | 0.7 nM | 6.9 nM | – | – | – | – | –

Continued, values first:

Dmax (KRAS^WT; [1]) | Dmax (KRAS^WT; [2]) | DC50 (HiBiT-KRAS^G12D; read-out: DC50 24 h GP5d HiBiT) | DC50 (KRAS^G12V) | IC50 (A375) | IC50 (NCI-H358) | IC50 (SW620) | DC50 (HiBiT-KRAS^G12D; 10% human serum, read-out: DC50 24 h GP5d HiBiT 10% human serum) | DC50 (HiBiT-KRAS^G12D; 10% mouse serum, read-out: DC50 24 h GP5d HiBiT 10% mouse serum) | SMILES
< 15% | < 20% | – | – | > 1000 nM | > 1000 nM | > 1000 nM | – | – | Cc1ncsc1-c1ccc(CNC(=O)C2CC(O)CN2C(=O)C(c2cc(OCCCCN3CCCN(c4nccc(-c5noc(C6(C)CCCc7sc(N)c(C#N)c76)n5)n4)C(C)C3)no2)C(C)C)cc1 (centres unmarked) [compound 5]
100% | – | 1.4 nM | – | > 1000 nM | 8.2 nM | 9.2 nM | 1.9 nM | 33.1 nM | Cc1ncsc1-c1ccc(CNC(=O)[C@@H]2C[C@@H](O)CN2C(=O)[C@@H](c2cc(OCCCCN3CCCN(c4nccc(-c5noc([C@@]6(C)CCCc7sc(N)c(C#N)c76)n5)n4)[C@@H](C)C3)no2)C(C)C)cc1 [compound 4]
– | – | 494 nM | 1200 nM | – | – | – | – | – | Cc1ncsc1-c1ccc(CNC(=O)[C@@H]2C[C@@H](O)CN2C(=O)[C@@H](NC(=O)COCCCN2CCCN(c3nccc(-c4noc([C@@]5(C)CCCc6sc(N)c(C#N)c65)n4)n3)[C@@H](C)C2)C(C)(C)C)cc1 [compound 2]
